Results from patent US20070166547A1, “Use of a layer consisting of hydrophobic linear, or two-dimensional polycyclic aromatics as a barrier layer or an encapsulation and electric components constructed with a layer of this type and comprising organic polymers” (priority 2003, published 2007).

What was measured:
thymus = assay: Morphine abstinence model: thymus condition; type: in vivo, rats; conditions: compound alone
[1] = tested on: synthase of nitrogen oxide (NOC); assay: Morphine abstinence model: activity of synthase of nitrogen oxide (radiometric, [3H]L-citrulline); type: in vivo, rats Wistar
[2] = tested on: embyronic fibroblasts of mouse NIH-3T3; assay: Endocellular pHi of fibroblasts by microspectrofluorimetry (FDA, BCECF-AM); type: cell-based; conditions: for rise of pHi: fibroblasts in an attached spread state; for increase of pHi: 20 minutes
Procedure, shortened: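 Mouse NIH-3T3 fibroblasts loaded 5 min at 37° C with 5.0 mkM FDA or 2.0 mkM BCECF-AM; medium with 5.0 mM HEPES and 15.0 mM bicarbonate. Excitation 490 nm, emission ratio 535/570 nm averaged over 40-60 cells at 37° C. pHi calibrated by nigericin in high-K+ buffers, pH 6.2-7.6.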

[3] = Polarographic study of electrochemical reduction (electrochemical activity); type: physicochemical; conditions: for i, mkA (polarographic wave current) / −E1/2, V (half-wave potential vs SCE): 37° C., forward trace, average for the group; for i, mkA (polarographic wave current): 9·10^−4 M
Procedure, shortened: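 DC polarography at 37 °C on a dropping mercury electrode (0.5 s drop) against SCE with a Pt auxiliary electrode. Compounds at 9·10^−4 M in N2-purged 2.0% NaCl at pH 7.0–7.6, scanned 0 to −0.5 V at 10.0 mV/s. E1/2 and ilim were determined graphically; electron number was derived by Heyrovsky–Ilkovič analysis.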

[4] = compound alone 20.0 mg/kg intramuscularly
[5] = morphinized rats then compound 20.0 mg/kg intramuscularly

Nc1cccc2c(=O)[nH][nH]c(=O)c12.[Na] [Compound 15, sodium salt of 5-amino-benzo[d]-3H-pyridazine-1,4-dione]
Nitrites, thymus Supernatant, Administration of compounds (thymus): 0.407 ± 0.02 nmol/mg of protein | Thymus mass, Administration of compounds (thymus): 298 ± 25 mg | Activity of NOC, Hypothalamus, Control + Compound [1, 4]: 5.45 ± 0.24 pmol/min/mg of protein | Activity of NOC, Mesencephalon, Control + Compound [1, 4]: 2.60 ± 0.29 pmol/min/mg of protein | Activity of NOC, Hypothalamus, Control + Morphine + compound [1, 5]: 5.26 ± 0.28 pmol/min/mg of protein | Activity of NOC, Mesencephalon, Control + Morphine + compound [1, 5]: 1.83 ± 0.23 pmol/min/mg of protein | rise of pHi ([2]; 2.0 mkg/ml): 0.10 unit pHi | rise of pHi ([2]; 20.0 mkg/ml): 0.07 unit pHi | increase of pHi ([2]; medium with 10.0% blood serum, 0.02 mkg/ml, suspension): do not initiate a change of pH | increase of pHi ([2]; medium with 10.0% blood serum, 0.2 mkg/ml, suspension): 0.1 unit pH | increase of pHi ([2]; medium with 10.0% blood serum, 2.0 mkg/ml, suspension): 0.12 unit pH | increase of pHi ([2]; medium with 10.0% blood serum, 20.0 mkg/ml, suspension): do not initiate a change of pH | increase of pHi ([2]; medium without blood serum, 0.02 mkg/ml): no effect was found | increase of pHi ([2]; medium without blood serum, 0.2 mkg/ml): no effect was found | increase of pHi ([2]; medium without blood serum, 2.0 mkg/ml): 0.08 unit pHi | increase of pHi ([2]; medium without blood serum, 20.0 mkg/ml): 0.08 unit pHi | increase of pHi ([2]; medium without blood serum, 200 mkg/ml): no effect was found | increase of pHi ([2]; medium without blood serum, 1000 mkg/ml): no effect was found | number of electrons participating in the reduction ([3]; calculated with the Geirovsky-Ilkovich equation): 4.09 | i, mkA (polarographic wave current) ([3]; pH 7.0): 0.23 ± 0.03 mkA | −E1/2, V (half-wave potential vs SCE) ([3]; pH 7.0): 0.092 ± 0.02 V | i, mkA (polarographic wave current) ([3]; pH 7.2): 0.30 ± 0.01 mkA | −E1/2, V (half-wave potential vs SCE) ([3]; pH 7.2): 0.09 ± 0.01 V | i, mkA (polarographic wave current) ([3]; pH 7.4): 0.29 ± 0.02 mkA | −E1/2, V (half-wave potential vs SCE) ([3]; pH 7.4): 0.092 ± 0.02 V | i, mkA (polarographic wave current) ([3]; pH 7.6): 0.31 ± 0.02 mkA | −E1/2, V (half-wave potential vs SCE) ([3]; pH 7.6): 0.09 ± 0.01 V | half-wave potential more positive on reverse stroke than on forward stroke ([3]; reverse stroke vs forward stroke): 30.0 mV
